Experimental data published in US10485236B2, “Triazole derivatives, intermediates thereof and their use as fungicides” (Bayer CropScience Aktiengesellschaft, priority 2015, dated 2019).
Marks after values point to notes of the source that are not given here.

Experiment: Measurement of LogP values by HPLC on reversed phase columns (EEC directive 79/831 Annex V.A8)
Type: physicochemical
Settings: for chromatographic logP: reversed phase HPLC column
Protocol: [table] If more than one Log P value is available within the same method, all the values are given and separated by “+”. Calibration was done with straight-chain alkan2-ones (with 3 to 16 carbon atoms) with known Log P values (measurement of Log P values using retention times with linear interpolation between successive alkanones). Lambda-max-values were determined using UV-spectra from 200 nm to 400 nm and the peak values of the chromatographic signals.

[1] = method [a]: LC-UV, acidic range, 0.1% formic acid in water and acetonitrile as eluent

Row | Compound | LogP | other results
1 | OC(Cn1cncn1)(c1ccc(Oc2ccc(Br)cc2)nc1C(F)(F)F)C1CC1 (racemic) [I.81] | 3.70^[a] | 
2 | OC(Cn1cncn1)c1ccc(Oc2ccc(Cl)cc2F)nc1C(F)(F)F (centres unmarked) [I.90] | 2.88^[a] | 
3 | CC(O)(Cn1cncn1)c1cnc(Oc2ccc(Cl)cc2)cc1Cl (single isomer, unassigned) [I.54] | 2.53^[a] | 
4 | CC(C)CC(=O)c1ccc(Oc2ccc(Cl)cc2)nc1C(F)(F)F [V.47] | 4.98^[a] | 
5 | OC(Cn1cncn1)c1cnc(Oc2ccc(C(F)F)cc2)cc1C(F)(F)F (centres unmarked) [I.55] | 2.55^[a] | 
6 | O=C(CBr)c1cnc(Oc2ccc(C(F)F)cc2)cc1C(F)(F)F [VI.27] | 3.99^[a] | 
7 | CCCC(=O)c1ccc(Oc2ccc(Cl)cc2)nc1C(F)(F)F [V.46] | 4.59^[a] | 
8 | CC(O)(Cn1cncn1)c1ccc(Oc2ccc(Br)cc2)nc1C(F)(F)F (single isomer, unassigned) [I.101] | 2.94^[a] | 
9 | O=C(CCl)c1ccc(Oc2ccc(Cl)cc2)nc1C(F)(F)F [VI.01, 2-chloro-1-[6-(4-chlorophenoxy)-2-(trifluoromethyl)-3-pyridyl]ethanone] |  | chromatographic logP (method [a], compounds of formula (VI), Table 3): 4.01
10 | O=C(c1ccc(Oc2ccc(C(F)F)cc2)nc1C(F)(F)F)C1CC1 [V.44] | 3.80^[a] | 
11 | OC(Cn1cncn1)(c1ccc(Oc2ccc(Br)cc2)nc1C(F)(F)F)C1CC1 (single isomer, unassigned) [I.99] | 3.41^[a] | 
12 | OC(Cn1cncn1)c1cnc(Oc2ccc(OC(F)(F)F)cc2)cc1C(F)(F)F (centres unmarked) [I.43] | 3.00^[a] | 
13 | O=C(CCl)c1cnc(Oc2ccc(OC(F)(F)F)cc2)cc1C(F)(F)F [VI.21] | 4.37^[a] | 
14 | CC(=O)c1cnc(Oc2ccc(C(F)(F)F)cc2)cc1C(F)(F)F [V.25] | 4.04^[a] | 
15 | CC(O)(Cn1cncn1)c1cnc(Oc2ccc(Br)cc2)cc1C(F)(F)F (centres unmarked) [I.49] | 2.96^[a] | 
16 | O=C(CCl)c1ccc(Oc2ccc(C(F)F)cc2)nc1C(F)(F)F [VI.36] | 3.50^[a] | 
17 | CC(O)(Cn1cncn1)c1ccc(Oc2ccc(Cl)cc2)nc1Cl (single isomer, unassigned) [I.51] | 2.62^[a] | 
18 | O=C(CCl)c1cnc(Oc2ccc(Cl)cc2F)cc1C(F)(F)F [VI.25] | 4.15^[a] | 
19 | O=C(CCl)c1ccc(Oc2ccc(OC(F)(F)F)cc2)nc1C(F)(F)F [VI.33] | 4.07^[a] | 
20 | O=C(CCl)c1ccc(Oc2ccc(Br)cc2)nc1C(F)(F)F [VI.19] | 4.11^[a] | 
21 | O=C(CBr)c1cnc(Oc2ccc(Br)cc2)cc1C(F)(F)F [VI.15] | 4.34^[a] | 
22 | CC(=O)c1ccc(Oc2ccc(C(F)F)cc2)nc1C(F)(F)F [V.32] | 3.26^[a] | 
23 | OC(Cn1cncn1)(c1ccc(Oc2ccc(Br)cc2)nc1C(F)(F)F)C1CC1 (single isomer, unassigned) [Example 1.84] | 3.41^[a] | 
24 | OC(Cn1cncn1)c1cnc(Oc2ccccc2)cc1Cl (racemic) [I.21] | 1.92^[a] | 

Row | Compound | LogP | other results
25 | O=C(c1ccc(Oc2ccc(C(F)(F)F)cc2)nc1C(F)(F)F)C1CC1 [V.39] | 4.37^[a] | 
26 | OC(Cn1cncn1)c1ccc(Oc2ccc(C(F)(F)F)cc2)nc1C(F)(F)F (single isomer, unassigned) [I.72] | 2.86^[a] | 
27 | O=C(CCl)c1cnc(Oc2ccc(C(F)F)cc2)cc1C(F)(F)F [VI.26] | 3.76^[a] | 
28 | FC(F)(F)c1nc(Oc2ccc(Cl)cc2)ccc1C1(C2CC2)CO1 (centres unmarked) [IX.07, 6-(4-chlorophenoxy)-3-(2-cyclopropyloxiran-2-yl)-2-(trifluoromethyl)pyridine] |  | chromatographic logP [1]: 4.8
29 | FC(F)(F)c1ccc(Oc2ccc(C3(C4CC4)CO3)c(C(F)(F)F)n2)cc1 (centres unmarked) [IX.11] | 5.00^[a] | 
30 | FC(F)(F)c1nc(Oc2ccc(S(F)(F)(F)(F)F)cc2)ccc1C1(C2CC2)CO1 (centres unmarked) [IX.09] | 5.22^[a] | 
31 | CC(=O)c1ccc(Oc2ccc(Br)cc2)nc1C(F)F [V.34] | 3.46^[a] | 
32 | CC(=O)c1ncc(Oc2ccc(Cl)cc2)nc1Oc1ccc(Cl)cc1 [V.33] | 4.36^[a] | 
33 | CC(O)(Cn1cncn1)c1cnc(Oc2ccc(C(F)(F)F)cc2)cc1C(F)(F)F (centres unmarked) [I.50] | 3.11^[a] | 
34 | O=C(CBr)c1ccc(Oc2ccc(Br)cc2)nc1C(F)(F)F [VI.18] | 4.23^[a] | 
35 | CC(O)(Cn1cncn1)c1ccc(Oc2ccc(Cl)cc2)nc1Cl (racemic) [I.09] | 2.66^[a] | 
36 | CC(=O)c1ccc(Oc2ccc(S(F)(F)(F)(F)F)cc2)nc1Cl [V.30] | 3.99^[a] | 
37 | CC(=O)c1cnc(Oc2ccc(C(F)F)cc2)cc1C(F)(F)F [V.04] | 3.62^[a] | 
38 | CCC(=O)c1ccc(Oc2ccc(Cl)cc2)nc1C(F)(F)F [V.45] | 4.20^[a] | 
39 | OC(Cn1cncn1)c1ccc(Oc2ccc(OC(F)(F)F)cc2)nc1C(F)(F)F (centres unmarked) [I.79] | 2.89^[a] | 
40 | OC(Cn1cncn1)(c1ccc(Oc2ccc(Cl)cc2)nc1C(F)(F)F)C1CC1 (centres unmarked) [I.71] | 3.35^[a] | 
41 | OC(Cn1cncn1)c1ncc(Oc2ccccc2)cc1Cl (racemic) [I.22] | 2.01^[a] | 
42 | CC(O)(Cn1cncn1)c1cnc(Oc2ccc(C(F)F)cc2)cc1C(F)(F)F (centres unmarked) [I.56] | 2.73^[a] | 
43 | CC(=O)c1ccc(Oc2ccc(S(F)(F)(F)(F)F)cc2)nc1C(F)(F)F [V.16] | 4.09^[a] | 
44 | CC(=O)c1cnc(Oc2ccc(S(F)(F)(F)(F)F)cc2)cc1C(F)(F)F [V.03] | 4.32^[a] | 
45 | CC(=O)c1ccc(Oc2ccc(Cl)cc2)nc1C(F)(F)F [V.01, 1-[6-(4-chlorophenoxy)-2-(trifluoromethyl)-3-pyridyl]ethanone] |  | chromatographic logP [1]: 3.8
46 | CC(=O)c1ccc(Oc2ccc(Cl)cc2)nc1F [V.24] | 3.51^[a] | 
47 | OC(Cn1cncn1)(c1ccc(Oc2ccc(Cl)cc2)nc1C(F)(F)F)C1CC1 (centres unmarked) [I.80] | 3.32^[a] | 
48 | CC(O)(Cn1cncn1)c1cnc(Oc2ccc(Br)cc2)cc1C(F)F (centres unmarked) [I.82] | 2.78^[a] | 

More lines, main results first:

Row | LogP | Compound | other results
49 | 2.50^[a] | O=C(Cn1cncn1)c1ccc(Oc2ccc(Cl)cc2)nc1F [VII.25] | 
50 | 2.66^[a] | O=C(Cn1cncn1)c1ccc(Oc2ccc(Cl)cc2)nc1Cl [VII.09] | 
51 | 3.33^[a] | O=C(Cn1cncn1)c1ccc(Oc2ccc(OC(F)(F)F)c(Cl)c2)nc1Cl [VII.04] | 
52 | 3.02^[a] | O=C(Cn1cncn1)c1cnc(Oc2ccc(Br)cc2)cc1C(F)(F)F [VII.27] | 
53 | 4.09^[a] | O=C(CCl)c1ccc(Oc2ccc(OC(F)(F)F)cc2)nc1Cl [VI.08] | 
54 | 2.41^[a] | O=C(Cn1cncn1)c1ccc(Oc2ccc(C(F)F)cc2)nc1C(F)(F)F [VII.42] | 
55 | 2.95^[a] | O=C(Cn1cncn1)c1ccc(Oc2ccc(OC(F)(F)F)cc2)nc1C(F)(F)F [VII.39] | 
56 | 2.08^[a] | OC(Cn1cncn1)c1ccc(Oc2ccccc2F)nc1Cl (racemic) [I.19] | 
57 | 2.92^[a] | OC(Cn1cncn1)c1ccc(Oc2ccc(Cl)cc2)nc1OC(F)(F)F (racemic) [I.26] | 
58 | 3.27^[a] | O=C(Cn1cncn1)c1cnc(Oc2ccc(OC(F)(F)F)cc2)cc1C(F)(F)F [VII.26] | 
59 | 3.77^[a] | O=C(CCl)c1cnc(Oc2ccc(Cl)cc2)cc1Cl [VI.06] | 
60 | 3.44^[a] | COc1ccc(Oc2ccc(C(C)=O)c(Cl)n2)c(Cl)c1 [V.29] | 
61 | 3.02^[a] | Cc1ccc(Oc2ccc(C(=O)Cn3cncn3)c(Cl)n2)cc1Cl [VII.11] | 
62 | 3.17^[a] | O=C(Cn1cncn1)c1cnc(Oc2ccc(C(F)(F)F)cc2)cc1C(F)(F)F [VII.28] | 
63 | 2.96^[a] | O=C(Cn1cncn1)c1ccc(Oc2c(F)cc(Cl)cc2F)nc1C(F)(F)F [VII.33] | 
64 | 1.96^[a] | CC(=O)c1ccc(Oc2ccc(C(=O)Cn3cncn3)c(Cl)n2)cc1 [VII.17] | 
65 | 2.68^[a] | CC(O)(Cn1cncn1)c1cnc(Oc2ccc(Cl)cc2)cc1C(F)F (centres unmarked) [I.64] | 
66 | 2.41^[a] | O=C(Cn1cncn1)c1ccc(Oc2ccc(F)cc2F)nc1Cl [VII.13] | 
67 | 2.95^[a] | O=C(Cn1cncn1)c1ccc(Oc2ccc(OC(F)(F)F)cc2)nc1Cl [VII.08] | 

Row | LogP | Compound | other results
68 | 2.75^[a] | Cc1cc(Cl)ccc1Oc1ccc(C(O)Cn2cncn2)c(Cl)n1 (racemic) [I.15] | 
69 | 2.20^[a] | O=C(Cn1cncn1)c1cnc(Oc2ccccc2)cc1Cl [VII.05] | 
70 | 2.94^[a] | Cc1cc(Cl)ccc1Oc1ccc(C(C)(O)Cn2cncn2)c(Cl)n1 (racemic) [I.28] | 
71 | 2.64^[a] | OC(Cn1cncn1)c1cnc(Oc2ccc(C(F)(F)F)cc2)cc1Cl (centres unmarked) [I.88] | 
72 | 2.17^[a] | OC(Cn1cncn1)c1ccc(Oc2ccc(C(F)F)cc2)nc1Cl (centres unmarked) [I.38] | 
73 | 2.68^[a] | CC(O)(Cn1cncn1)c1ccc(Oc2ccc(Cl)cc2)nc1C(F)(F)F (centres unmarked) [I.67] | 
74 | 2.92^[a] | O=C(Cn1cncn1)c1cnc(Oc2ccc(C(F)(F)F)cc2)cc1Cl [VII.40] | 
75 | 2.46^[a] | CC(O)(Cn1cncn1)c1ccc(Oc2ccc(Cl)cc2)nc1F (centres unmarked) [I.42] | 
76 | 2.48^[a] | OC(Cn1cncn1)c1cnc(Oc2ccc(Cl)cc2)cc1Cl (centres unmarked) [I.68] | 
77 | 3.72^[a] | O=C(CCl)c1ccc(Oc2ccc(Cl)cc2)nc1Cl [VI.04] | 
78 | 2.99^[a] | O=C(Cn1cncn1)c1ccc(Oc2ccc(Br)cc2)nc1C(F)(F)F [VII.24] | 
79 | 2.66^[a] | O=C(Cn1cncn1)c1ccc(Oc2cc(F)c(F)c(F)c2)nc1Cl [VII.15] | 
80 | 2.58^[a] | COc1ccc(Oc2ccc(C(=O)Cn3cncn3)c(Cl)n2)c(Cl)c1 [VII.19] | 
81 | 3.06^[a] | O=C(Cn1cncn1)c1ccc(Oc2ccc(Cl)c(Cl)c2)nc1Cl [VII.03] | 
82 | 2.73^[a] | OC(Cn1cncn1)c1ccc(Oc2ccc(OC(F)(F)F)cc2)nc1Cl (racemic) [I.12] | 
83 | 2.61^[a] | O=C(Cn1cncn1)c1cnc(Oc2ccc(Br)cc2)cc1C(F)F [VII.41] | 
84 | 2.28^[a] | O=C(Cn1cncn1)c1ccc(Oc2ccccc2F)nc1Cl [VII.14] | 
85 | 2.13^[a] | OC(Cn1cncn1)c1cnc(Oc2ccc(Cl)cc2)cc1C(F)F (centres unmarked) [I.94] | 
86 | 1.65^[a] | OC(Cn1cncn1)c1ccc(Oc2cc(F)c(F)c(F)c2)nc1Cl (racemic) [I.20] | 
